Measurements taken from patent US11759455B2, “Substituted 1H-imidazo[4,5-b]pyridin-2(3H)-ones and their use as GLUN2B receptor modulators” (JANSSEN PHARMACEUTICA NV, priority 2016, dated 2023).
Where two headings read alike, the source gives them in different places.

Molecular target: T1, human GluN1/GluN2B NMDA receptors (Homo sapiens, UniProt Q13224)
T1 construct: expressed in transfected cells
Assay: Cell-based calcium flux (FLIPR) assay on cloned human NR1/NR2B ion channels expressed in mammalian cells (standard and HTS buffer variants);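 note: stable Tet-On inducible cell line, Ca2+ influx triggered by glutamate at about EC40 plus 10 µM glycine, fluorescent dye read-out over 5 min, normalized to control wells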

[1] = standard assay buffer (0.5 mM MgCl2 dye loading; 137 mM NaCl, 4 mM KCl assay buffer), human GluN1/GluN2B cells, read-out: NR2B IC50 (μM) standard assay
[2] = standard assay buffer (0.5 mM MgCl2 in dye loading buffer; 137 mM NaCl, 4 mM KCl in assay buffer), human GluN1/GluN2B, read-out: NR2B IC50 (μM) standard assay
[3] = HTS assay buffer (1.5 mM MgCl2 in dye loading buffer; 150 mM NaCl, 3 mM KCl in assay buffer), human GluN1/GluN2B, read-out: NR2B IC50 (μM) HTS assay

T1 sequence (Q13224 27-1484, other chains not shown): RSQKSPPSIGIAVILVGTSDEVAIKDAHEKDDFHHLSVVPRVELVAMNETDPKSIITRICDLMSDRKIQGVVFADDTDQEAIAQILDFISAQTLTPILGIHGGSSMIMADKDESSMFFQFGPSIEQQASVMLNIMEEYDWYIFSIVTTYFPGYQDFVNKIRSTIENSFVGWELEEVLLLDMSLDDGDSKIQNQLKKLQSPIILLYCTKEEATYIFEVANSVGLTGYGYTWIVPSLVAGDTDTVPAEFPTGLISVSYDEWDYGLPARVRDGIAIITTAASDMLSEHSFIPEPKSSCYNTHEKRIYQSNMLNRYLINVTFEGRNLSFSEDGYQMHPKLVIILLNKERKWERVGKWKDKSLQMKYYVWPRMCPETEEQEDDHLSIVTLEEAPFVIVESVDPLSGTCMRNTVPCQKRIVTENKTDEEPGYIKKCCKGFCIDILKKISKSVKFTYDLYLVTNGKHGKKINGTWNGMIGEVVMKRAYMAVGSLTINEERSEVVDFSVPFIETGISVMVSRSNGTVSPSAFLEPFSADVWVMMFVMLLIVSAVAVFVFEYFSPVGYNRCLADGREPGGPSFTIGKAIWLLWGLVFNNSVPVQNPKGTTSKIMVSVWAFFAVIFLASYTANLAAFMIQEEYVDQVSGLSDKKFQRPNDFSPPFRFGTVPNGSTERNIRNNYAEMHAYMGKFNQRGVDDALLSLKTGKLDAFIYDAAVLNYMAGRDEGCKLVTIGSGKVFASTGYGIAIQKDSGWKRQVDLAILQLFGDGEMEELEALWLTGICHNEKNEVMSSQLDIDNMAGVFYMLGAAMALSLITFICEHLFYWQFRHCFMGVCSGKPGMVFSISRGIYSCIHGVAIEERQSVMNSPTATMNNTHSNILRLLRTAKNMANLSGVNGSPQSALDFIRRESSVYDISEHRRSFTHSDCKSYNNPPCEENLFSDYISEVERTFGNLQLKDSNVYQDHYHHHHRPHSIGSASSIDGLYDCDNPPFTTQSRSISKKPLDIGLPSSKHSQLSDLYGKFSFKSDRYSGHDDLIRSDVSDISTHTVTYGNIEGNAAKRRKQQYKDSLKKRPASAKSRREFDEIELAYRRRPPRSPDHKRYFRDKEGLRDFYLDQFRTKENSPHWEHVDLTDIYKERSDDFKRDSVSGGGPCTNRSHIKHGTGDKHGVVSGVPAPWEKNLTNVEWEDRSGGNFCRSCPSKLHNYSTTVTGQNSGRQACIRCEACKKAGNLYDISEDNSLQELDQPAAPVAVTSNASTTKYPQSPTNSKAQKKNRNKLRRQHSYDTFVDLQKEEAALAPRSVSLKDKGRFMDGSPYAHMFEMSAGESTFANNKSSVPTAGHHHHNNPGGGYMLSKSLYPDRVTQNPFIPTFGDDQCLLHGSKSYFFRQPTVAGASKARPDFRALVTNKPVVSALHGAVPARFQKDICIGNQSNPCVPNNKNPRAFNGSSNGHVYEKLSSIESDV

Cn1c(=O)n(Cc2cccnc2)c2cc(-c3cccc(F)c3)cnc21 [Example 51, 6-(3-Fluorophenyl)-3-methyl-1-(3-pyridylmethyl)imidazo[4,5-b]pyridin-2-one]
IC50 [1]: 22.6 µM

Cn1c(=O)n(Cc2cncc(Cl)c2)c2cc(-c3cccc(F)c3F)cnc21 [Example 375, 1-[(5-Chloro-3-pyridyl)methyl]-6-(2,3-difluorophenyl)-3-methyl-imidazo[4,5-b]pyridin-2-one]
IC50 [2]: 1.51 µM

Cc1cc(-c2cnc3[nH]c(=O)n(Cc4cncc(F)c4)c3c2)ccc1Cl [Example 306, 6-(4-Chloro-3-methyl-phenyl)-1-[(5-fluoro-3-pyridyl)methyl]-3H-imidazo[4,5-b]pyridin-2-one]
IC50 [1]: 0.086 µM

O=C(Cn1c(=O)[nH]c2ncc(-c3cccc(C(F)(F)F)c3)cc21)NC1CCCC1 [Example 205, N-Cyclopentyl-2-[2-oxo-6-[3-(trifluoromethyl)phenyl]-3H-imidazo[4,5-b]pyridin-1-yl]acetamide]
IC50 [1]: 0.523 µM

Cn1c(=O)n(CC(=O)N2CCC2)c2cc(-c3cc(F)cc(F)c3)cnc21 [Example 412, 1-[2-(Azetidin-1-yl)-2-oxo-ethyl]-6-(3,5-difluorophenyl)-3-methyl-imidazo[4,5-b]pyridin-2-one]
IC50 [2]: 0.027 µM

Cc1ccncc1Cn1c(=O)[nH]c2ncc(-c3cccc(C(F)(F)F)c3)cc21 [Example 313, 1-[(4-Methyl-3-pyridyl)methyl]-6-[3-b]pyridin-2-one]
IC50 [1]: 0.018 µM

Cc1cccc(-c2cnc3c(c2)n(Cc2cccnn2)c(=O)n3C)c1 [Example 379, 3-Methyl-6-(m-tolyl)-1-(pyridazin-3-ylmethyl)imidazo[4,5-b]pyridin-2-one]
IC50 [2]: 0.033 µM

O=c1[nH]c2ncc(-c3cccc(C(F)(F)F)c3)cc2n1CCN1CCC(F)CC1 [Example 162, 1-[2-(4-Fluoro-1-piperidyl)ethyl]-6-[3-(trifluoromethyl)phenyl]-3H-imidazo[4,5-b]pyridin-2-one]
IC50 [1]: 1.1 µM

Cc1cc(F)cc(-c2cnc3c(c2)n(Cc2cccnn2)c(=O)n3C)c1 [Example 381, 6-(3-Fluoro-5-methyl-phenyl)-3-methyl-1-(pyridazin-3-ylmethyl)imidazo[4,5-b]pyridin-2-one]
IC50 [2]: 0.037 µM

CN1CCN(C(=O)Cn2c(=O)[nH]c3ncc(-c4cccc(C(F)(F)F)c4)cc32)CC1 [Example 193, 1-[2-(4-Methylpiperazin-1-yl)-2-oxo-ethyl]-6-[3-(trifluoromethyl)phenyl]-3H-imidazo[4,5-b]pyridin-2-one]
IC50 [1]: 0.587 µM

Cc1ccccc1-c1cnc2[nH]c(=O)n(CCN3CC(F)C3)c2c1 [Example 186, 1-[2-(3-Fluoroazetidin-1-yl)ethyl]-6-(o-tolyl)-3H-imidazo[4,5-b]pyridin-2-one]
IC50 [1]: 1.34 µM

Cn1c(=O)n(Cc2cncc(F)c2)c2cc(-c3cccc(F)c3F)cnc21 [Example 346, 6-(2,3-Difluorophenyl)-1-[(5-fluoro-3-pyridyl)methyl]-3-methyl-imidazo[4,5-b]pyridin-2-one]
IC50 [2]: 0.225 µM

O=c1[nH]c2ncc(-c3cccc(C(F)(F)F)c3)cc2n1Cc1cncnc1 [Example 255, 1-(Pyrimidin-5-ylmethyl)-6-[3-(trifluoromethyl)phenyl]-3H-imidazo[4,5-b]pyridin-2-one]
IC50 [1]: 0.043 µM

CCOc1ccc(F)cc1-c1cnc2[nH]c(=O)n(CC(=O)c3cccs3)c2c1 [Example 460, 6-(2-Ethoxy-5-fluoro-phenyl)-1-[2-oxo-2-(2-thienyl)ethyl]-3H-imidazo[4,5-b]pyridin-2-one]
IC50 [3]: 1.77 µM

Cc1cc(Cn2c(=O)n(C)c3ncc(-c4ccc(F)c(C)c4F)cc32)no1 [Example 571, 6-(2,4-Difluoro-3-methyl-phenyl)-3-methyl-1-[(5-methylisoxazol-3-yl)methyl]imidazo[4,5-b]pyridin-2-one]
IC50 [2]: 0.037 µM

Cn1cc(Cn2c(=O)n(C)c3ncc(-c4ccc(C(F)(F)F)s4)cc32)nn1 [Example 566, 3-Methyl-1-[(1-methyltriazol-4-yl)methyl]-6-[5-(trifluoromethyl)-2-thienyl]imidazo[4,5-b]pyridin-2-one]
IC50 [2]: 0.349 µM

COc1cccc(Cn2c(=O)[nH]c3ncc(-c4ccc(F)cc4OC)cc32)c1 [Example 505, 6-(4-Fluoro-2-methoxy-phenyl)-1-[(3-methoxyphenyl)methyl]-3H-imidazo[4,5-b]pyridin-2-one]
IC50 [2]: 1.64 µM

Cc1nnc(Cn2c(=O)n(C)c3ncc(-c4ccc(C(F)F)s4)cc32)o1 [Example 560, 6-[5-(Difluoromethyl)-2-thienyl]-3-methyl-1-[(5-methyl-1,3,4-oxadiazol-2-yl)methyl]imidazo[4,5-b]pyridin-2-one]
IC50 [2]: 0.304 µM

Cn1c(=O)n(Cc2cccnn2)c2cc(-c3ccc(C(F)F)s3)cnc21 [Example 100, 6-[5-(Difluoromethyl)-2-thienyl]-3-methyl-1-(pyridazin-3-ylmethyl)imidazo[4,5-b]pyridin-2-one]
IC50 [1]: 0.033 µM

Cn1c(=O)n(Cc2ncccn2)c2cc(-c3cccc(F)c3)cnc21 [Example 56, 6-(3-Fluorophenyl)-3-methyl-1-(pyrimidin-2-ylmethyl)imidazo[4,5-b]pyridin-2-one]
IC50 [1]: 8.71 µM

Cc1cc(Cn2c(=O)n(C)c3ncc(-c4ccc(C(F)F)s4)cc32)no1 [Example 564, 6-[5-(Difluoromethyl)-2-thienyl]-3-methyl-1-[(5-methylisoxazol-3-yl)methyl]imidazo[4,5-b]pyridin-2-one]
IC50 [2]: 0.087 µM

Cc1cc(-c2cnc3[nH]c(=O)n(Cc4cccnc4)c3c2)ccc1F [Example 294, 6-(4-Fluoro-3-methyl-phenyl)-1-(3-pyridylmethyl)-3H-imidazo[4,5-b]pyridin-2-one]
IC50 [1]: 0.023 µM

Cn1c(=O)n(Cc2cccnc2)c2cc(-c3cc(F)cc(F)c3)cnc21 [Example 354, 6-(3,5-Difluorophenyl)-3-methyl-1-(3-pyridylmethyl)imidazo[4,5-b]pyridin-2-one]
IC50 [2]: 1.03 µM

COc1cc(F)ccc1-c1cnc2[nH]c(=O)n(Cc3cc(C)on3)c2c1 [Example 520, 6-(4-Fluoro-2-methoxy-phenyl)-1-[(5-methylisoxazol-3-yl)methyl]-3H-imidazo[4,5-b]pyridin-2-one]
IC50 [2]: 0.019 µM

CCC(=O)Cn1c(=O)[nH]c2ncc(-c3cccc(C)c3)cc21 [Example 332, 6-(m-Tolyl)-1-(2-oxobutyl)-3H-imidazo[4,5-b]pyridin-2-one]
IC50 [2]: 0.036 µM

O=C(Cn1c(=O)[nH]c2ncc(-c3cccc(C(F)(F)F)c3)cc21)N1CC(F)(F)C1 [Example 194, 1-[2-(3,3-Difluoroazetidin-1-yl)-2-oxo-ethyl]-6-[3-(trifluoromethyl)phenyl]-3H-imidazo[4,5-b]pyridin-2-one]
IC50 [1]: 0.047 µM

Cc1cc(Cn2c(=O)[nH]c3ncc(-c4ccc(F)cc4)cc32)no1 [Example 12, 6-(4-Fluorophenyl)-1-[(5-methylisoxazol-3-yl)methyl]-3H-imidazo[4,5-b]pyridin-2-one]
IC50 [1]: 0.029 µM

Cn1c(=O)n(Cc2cncc(Cl)c2)c2cc(-c3cc(F)c(F)c(F)c3)cnc21 [Example 370, 1-[(5-Chloro-3-pyridyl)methyl]-3-methyl-6-(3,4,5-trifluorophenyl)imidazo[4,5-b]pyridin-2-one]
IC50 [2]: 0.131 µM

CCC(=O)Cn1c(=O)[nH]c2ncc(-c3cccc(F)n3)cc21 [Example 537, 6-(6-Fluoro-2-pyridyl)-1-(2-oxobutyl)-3H-imidazo[4,5-b]pyridin-2-one]
IC50 [2]: 0.273 µM

Cc1c(F)ccc(-c2cnc3[nH]c(=O)n(Cc4cccnc4)c3c2)c1F [Example 293, 6-(2,4-Difluoro-3-methyl-phenyl)-1-(3-pyridylmethyl)-3H-imidazo[4,5-b]pyridin-2-one]
IC50 [1]: 0.017 µM

Cc1c(F)ccc(-c2cnc3[nH]c(=O)n(CC(=O)N4CCC4)c3c2)c1F [Example 579, 1-[2-(Azetidin-1-yl)-2-oxo-ethyl]-6-(2,4-difluoro-3-methyl-phenyl)-3H-imidazo[4,5-b]pyridin-2-one]
IC50 [2]: 0.015 µM

COc1ccc(-c2cnc3[nH]c(=O)n(Cc4cc(C)on4)c3c2)c(OC)c1 [Example 518, 6-(2,4-Dimethoxyphenyl)-1-[(5-methylisoxazol-3-yl)methyl]-3H-imidazo[4,5-b]pyridin-2-one]
IC50 [2]: 0.808 µM

COc1ccc(-c2cnc3[nH]c(=O)n(CC4CC4)c3c2)c(OC)c1 [Example 465, 1-(Cyclopropylmethyl)-6-(2,4-dimethoxyphenyl)-3H-imidazo[4,5-b]pyridin-2-one]
IC50 [3]: 14.4 µM

O=c1[nH]c2ncc(-c3cccc(C(F)(F)F)c3)cc2n1CCNC1CC1 [Example 148, 1-[2-(Cyclopropylamino)ethyl]-6-[3-(trifluoromethyl)phenyl]-3H-imidazo[4,5-b]pyridin-2-one]
IC50 [1]: 0.505 µM

Cc1cncc(Cn2c(=O)[nH]c3ncc(-c4ccc(F)c(F)c4)cc32)c1 [Example 272, 6-(3,4-Difluorophenyl)-1-[(5-methyl-3-pyridyl)methyl]-3H-imidazo[4,5-b]pyridin-2-one]
IC50 [1]: 0.034 µM

Cc1nc(Cn2c(=O)[nH]c3ncc(-c4ccc(F)c(F)c4)cc32)no1 [Example 144, 6-(3,4-Difluorophenyl)-1-[(5-methyl-1,2,4-oxadiazol-3-yl)methyl]-3H-imidazo[4,5-b]pyridin-2-one]
IC50 [1]: 0.107 µM

O=c1[nH]c2ncc(-c3ccc(F)c(F)c3)cc2n1Cc1cncc(F)c1 [Example 298, 6-(3,4-Difluorophenyl)-1-[(5-fluoro-3-pyridyl)methyl]-3H-imidazo[4,5-b]pyridin-2-one]
IC50 [1]: 0.032 µM

Cc1cncc(Cn2c(=O)[nH]c3ncc(-c4cccc(Cl)c4)cc32)c1 [Example 273, 6-(3-Chlorophenyl)-1-[(5-methyl-3-pyridyl)methyl]-3H-imidazo[4,5-b]pyridin-2-one]
IC50 [1]: 0.096 µM

Cn1c(=O)n(CC(=O)N2CC(F)C2)c2cc(-c3ccc(CO)s3)cnc21 [Example 90, 1-[2-(3-Fluoroazetidin-1-yl)-2-oxo-ethyl]-6-[5-(hydroxymethyl)-2-thienyl]-3-methyl-imidazo[4,5-b]pyridin-2-one]
IC50 [1]: 0.915 µM
